Measurements published in patent US20050004007A1, “Promotion of adoptosis in cancer cells by co-administration of cyclin dependent kinase inhibitiors and cellular differentiation agents” (priority 2000, published 2005).

Key:
Format in all cases: cell-based, human
p27KIP1 = experiment: Western analysis of p27KIP1 expression in U937 cells; details: 10 nM PMA, FP 50-100 nM, 24 h
Procedure: Western analysis. Equal quantities of protein (15 μg/condition for MAPK, 40 μg/condition for cytochrome c, or 25 μg/condition) were separated by SDS-PAGE [underphosporylated pRB (7.5%), poly(ADP-ribose)polymerase or PARP (8.0%), p44/p42 MAPK (10%), p21, p27, procaspase 3 (12%), and cytochrome c (15%)] and electroblotted onto nitrocellulose. Western analysis of p44/p42 MAPK protein was performed according to the manufacturer's instructions (New England Biolabs); otherwise, studies were performed as previously described [Wang et al, 1998]. Briefly, U937 cells (5×10^6) were pelleted by centrifugation, resuspended in 50 μl PBS, lysed by the addition of 2× Laemmli buffer and boiled for 5 min. Proteins were quantified with Coomassie protein assay reagent. Blots were blocked in PBS-T/5% milk, washed twice with PBS-T, and incubated overnight at 4° C. with the appropriate primary antibody. The blots were washed with PBS-T and incubated with a horseradish-peroxidase conjugated secondary antibody diluted appropriately in PBS-T/5% mill. […]
Alternatively, whole cell-pellets were washed twice in PBS, resuspended in PBS, and lysed by the addition of I volume of loading buffer. Lysates were boiled for 10 min, centrifuged at 12,800 g for 5 min and quantified using Coomassie protein assay reagent (Pierce, Rockfold, Ill.). […]

pRb/E2F complexes = experiment: pRb immunoprecipitation and EMSA of E2F in U937 cells; details: 8 h exposure; 10 nM PMA, 100 nM FP, 1 mM SB
Procedure: Electrophoretic Mobility Shift Assay (EMSA) and Immunoprecipitation (IP). Whole-cell extracts were prepared as previously described [Bagchi et al. 1990] and EMSA following IP was performed as previously reported [Chellapan et al. 1991]. Whole cell extracts (150 μg) were combined with 4 μl of anti-RB monoclonal antibody (Calbiochem) for the IP. Immunoprecipitated proteins were recovered on Protein A sepharose beads and dissociated by treatment with deoxycholate. The presence of E2F in the IP was monitored by EMSA as previously noted [Yee et al. 1987].
Immunoprecipitation and EMSA. Whole-cell extracts were prepared by hypotonic shock followed by salt extraction, as described previously (Chellappan et al., 1991). Portions (50 to 200 μg) of whole-cell extracts were treated with 5 μl of the appropriate primary antibody in a volume of 100 μl at 4° C. for 1 h. Then, 3 mg of protein A-Sepharose or protein G-Sepharose in a 100-μl volume was added and incubated for an additional hour. The binding was performed in a buffer containing 20 mM HEPES (pH 7.9), 40 mM KCl, 1 mM MgCl2, 0.1 mM EGTA, 0.1 mM EDTA, 0.1 mM DTT, 0.1 mM NaF, 0.1 mM Na3VO4, 0.5% NP-40, and 3 mg of BSA per ml. The beads were washed six times with 600 μl of the same buffer and boiled in 20 μl of SDS sample buffer. […] The gel was dried, and the bands were detected by autoradiography.

XIAP = experiment: Western analysis of XIAP in U937 cells; details: FP 100 nM, SB 1 mM
Procedure: (§1) Alternatively, whole cell-pellets were washed twice in PBS, resuspended in PBS, and lysed by the addition of I volume of loading buffer. Lysates were boiled for 10 min, centrifuged at 12,800 g for 5 min and quantified using Coomassie protein assay reagent (Pierce, Rockfold, Ill.). 25 μg of total proteins per point were separated by SDS-PAGE and electro-blotted to nitrocellulose. The blots were blocked in 5% non-fat milk in PBS-T and probed for 1 h with the appropriate dilution of primary antibody. Blots were washed 3×10 min in PBS-T and then incubated with a 1:2000 dilution of peroxidase-conjugated secondary antibody for 1 h at room temperature. Blots were again washed 3×10 min in PBS-T and then developed by enhanced chemiluminesence. Where indicated, blots were stripped and re-probed with antibodies directed against actin. […]

cdk2 and cdk4 = experiment: Western analysis of cdk2/4-phosphorylated pRb in U937 cells; details: FP 100 nM, SB 1 mM
Procedure: as §1

CN1CC[C@H](c2c(O)cc(O)c3c(=O)cc(-c4ccccc4Cl)oc23)[C@H](O)C1 [FP, Flavopiridol]
p27KIP1 expression (p27KIP1): no effect | E2F binding to labeled probe after pRb immunoprecipitation (pRb/E2F complexes): clear reduction in E2F binding | levels of XIAP (XIAP): modest decreases | cdk2/4 activities (cdk2/4-phosphorylated pRb) (cdk2 and cdk4): moderate inhibition
